Key:
Zymoseptoria tritici = experiment: Leaf blotch of wheat (SEPTTR) disease control on wheat seedlings; format: in vivo; parameters: key to SEPTTR 1DP, HV activity at 100 ppm (% control rating) / SEPTTR 3DC, HV activity at 100 ppm (% control rating) / SEPTTR disease control, 1DP / SEPTTR disease control, 3DC / SEPTTR 1DP disease control rating, HV activity / SEPTTR 3DC disease control rating, HV activity / SEPTTR 3DC, LV activity at 125.1 g/H (% Control rating) / SEPTTR 1DP, LV activity at 125.1 g/H (% Control rating) / SEPTTR 1DP disease control rating, LV activity at 125.1 g/H / SEPTTR 3DC disease control rating, LV activity at 125.1 g/H / SEPTTR 3DC disease control rating, HV activity at 100 ppm / SEPTTR 1DP disease control rating, HV activity at 100 ppm / HV activity at 100 ppm SEPTTR 3DC (disease control rating) / HV activity at 100 ppm SEPTTR 1DP (disease control rating) / LV activity at 125.1 g/H SEPTTR 1DP (disease control rating) / LV activity at 125.1 g/H SEPTTR 3DC (disease control rating): A: > 80; B: ≤ 80; C: Not Tested; D: No Activity Observed in the Reported Assay; details: 100 ppm; for SEPTTR 1DP disease control rating, HV activity at 100 ppm / SEPTTR 3DC disease control rating, HV activity at 100 ppm: high volume application; for SEPTTR 1DP disease control rating, HV activity at 100 ppm: 1 day protectant; for SEPTTR 3DC disease control rating, HV activity at 100 ppm: 3 day curative; for HV activity at 100 ppm SEPTTR 1DP (disease control rating) / HV activity at 100 ppm SEPTTR 3DC (disease control rating): HV application, wheat leaf blotch; for HV activity at 100 ppm SEPTTR 1DP (disease control rating): 1 Day Protectant; for HV activity at 100 ppm SEPTTR 3DC (disease control rating): 3 Day Curative
Puccinia triticina = experiment: Wheat brown rust (PUCCRT) disease control on wheat seedlings; format: in vivo; parameters: key to PUCCRT 3DC, HV activity at 100 ppm (% control rating) / PUCCRT disease control, 3DC / PUCCRT 1DP disease control rating, HV activity / PUCCRT 3DC disease control rating, HV activity / PUCCRT 3DC, LV activity at 125.1 g/H (% Control rating) / PUCCRT 1DP, LV activity at 125.1 g/H (% Control rating) / PUCCRT 3DC disease control rating, LV activity at 125.1 g/H / PUCCRT 1DP disease control rating, LV activity at 125.1 g/H / PUCCRT 3DC disease control rating, HV activity at 100 ppm / PUCCRT 1DP disease control rating, HV activity at 100 ppm / HV activity at 100 ppm PUCCRT 3DC (disease control rating) / LV activity at 125.1 g/H PUCCRT 1DP (disease control rating) / LV activity at 125.1 g/H PUCCRT 3DC (disease control rating): A: > 80; B: ≤ 80; C: Not Tested; D: No Activity Observed in the Reported Assay; details: 100 ppm; for PUCCRT 1DP disease control rating, HV activity at 100 ppm / PUCCRT 3DC disease control rating, HV activity at 100 ppm: high volume application; for PUCCRT 1DP disease control rating, HV activity at 100 ppm: 1 day protectant; for PUCCRT 3DC disease control rating, HV activity at 100 ppm: 3 day curative; for HV activity at 100 ppm PUCCRT 1DP (disease control rating) / HV activity at 100 ppm PUCCRT 3DC (disease control rating): HV application, wheat brown rust; for HV activity at 100 ppm PUCCRT 1DP (disease control rating): 1 Day Protectant; for HV activity at 100 ppm PUCCRT 3DC (disease control rating): 3 Day Curative

Compound | SEPTTR 1DP disease control rating, HV activity at 100 ppm (Zymoseptoria tritici) | SEPTTR 3DC disease control rating, HV activity at 100 ppm (Zymoseptoria tritici) | PUCCRT 1DP disease control rating, HV activity at 100 ppm (Puccinia triticina) | PUCCRT 3DC disease control rating, HV activity at 100 ppm (Puccinia triticina) | HV activity at 100 ppm SEPTTR 1DP (disease control rating) (Zymoseptoria tritici) | HV activity at 100 ppm SEPTTR 3DC (disease control rating) (Zymoseptoria tritici) | HV activity at 100 ppm PUCCRT 1DP (disease control rating) (Puccinia triticina) | HV activity at 100 ppm PUCCRT 3DC (disease control rating) (Puccinia triticina)
COc1ccnc(C(=O)N[C@@H](C)C(=O)O[C@@H](C)[C@H](Oc2cccc(Cl)c2)C2CC2)c1O [Cmpd 1009] | A (> 80) | A (> 80) | A (> 80) | A (> 80) |  |  |  | 
COc1ccnc(C(=O)N[C@@H](C)C(=O)O[C@@H](C)[C@H](Oc2ccc(C)cc2)C2CC2)c1O [Cmpd 1010] | B (≤ 80) | B (≤ 80) | A (> 80) | A (> 80) |  |  |  | 
CCC[C@@H](Oc1ccc(C)cc1)[C@H](C)OC(=O)[C@H](C)NC(=O)c1nccc(OC)c1O [Cmpd 1012] | B (≤ 80) | B (≤ 80) | A (> 80) | A (> 80) |  |  |  | 
CCC[C@@H](Oc1cccc(OC)c1)[C@H](C)OC(=O)[C@H](C)NC(=O)c1nccc(OC)c1O [Cmpd 1013] | B (≤ 80) | B (≤ 80) | A (> 80) | A (> 80) |  |  |  | 
COc1cccc(O[C@H](C2CC2)[C@H](C)OC(=O)[C@H](C)NC(=O)c2nccc(OC)c2O)c1 [Cmpd 1014] | B (≤ 80) | B (≤ 80) | A (> 80) | A (> 80) |  |  |  | 
COc1cccc(O[C@@H]([C@H](C)OC(=O)[C@H](C)NC(=O)c2nccc(OC)c2O)C(C)(C)C)c1 [Cmpd 1015] | B (≤ 80) | B (≤ 80) | A (> 80) | A (> 80) |  |  |  | 
COc1ccnc(C(=O)N[C@@H](C)C(=O)O[C@@H](C)[C@H](Oc2ccccc2)C2CC2)c1O [Cmpd 1016] | B (≤ 80) | B (≤ 80) | A (> 80) | A (> 80) |  |  |  | 
C=CC[C@@H](OCC(=C)C)[C@H](C)OC(=O)[C@H](C)NC(=O)c1nccc(OC)c1O [Cmpd 1019] | B (≤ 80) | A (> 80) | A (> 80) | A (> 80) |  |  |  | 
C=CC[C@@H](Oc1ccc(C(F)(F)F)cc1)[C@H](C)OC(=O)[C@H](C)NC(=O)c1nccc(OC)c1O [Cmpd 1020] | B (≤ 80) | B (≤ 80) | A (> 80) | A (> 80) |  |  |  | 
C=CC[C@@H](Oc1cccc(Cl)c1)[C@H](C)OC(=O)[C@H](C)NC(=O)c1nccc(OC)c1O [Cmpd 1021] | A (> 80) | A (> 80) | A (> 80) | A (> 80) |  |  |  | 
C=CC[C@@H](Oc1cc(F)cc(Cl)c1)[C@H](C)OC(=O)[C@H](C)NC(=O)c1nccc(OC)c1O [Cmpd 1022] | D | B (≤ 80) | B (≤ 80) | A (> 80) |  |  |  | 
C=CC[C@@H](Oc1ccc(F)cc1F)[C@H](C)OC(=O)[C@H](C)NC(=O)c1nccc(OC)c1O [Cmpd 1023] | D | B (≤ 80) | A (> 80) | A (> 80) |  |  |  | 
C=CC[C@@H](OCC1CC1)[C@H](C)OC(=O)[C@H](C)NC(=O)c1nccc(OC)c1O [Cmpd 1024] | D | B (≤ 80) | B (≤ 80) | A (> 80) |  |  |  | 
CC(NC(=O)c1nccc(Br)c1O)C(=O)OC(C)C(Oc1ccccc1)C(C)C (stereo not shown) [Cmpd 1025] | D | B (≤ 80) | A (> 80) | B (≤ 80) |  |  |  | 
COc1ccnc(C(=O)NC(C)C(=O)OC(C(C)C)C(Oc2ccccc2)C(C)C)c1O (stereo not shown) [Cmpd 1031] |  |  |  |  | B (≤ 80) | D | B (≤ 80) | D
C=CC(OC(=O)C(C)NC(=O)c1nccc(OC)c1O)C(Oc1ccccc1)C(C)C (stereo not shown) [Cmpd 1033] |  |  |  |  | A (> 80) | B (≤ 80) | A (> 80) | A (> 80)
CC(C)C[C@@H](Oc1cccc(F)c1)[C@H](C)OC(=O)[C@H](C)NC(=O)c1ncccc1O [Cmpd 1035] |  |  |  |  | B (≤ 80) | D | A (> 80) | A (> 80)
CC(C)C[C@@H](Oc1cc(F)ccc1F)[C@H](C)OC(=O)[C@H](C)NC(=O)c1ncccc1O [Cmpd 1036] |  |  |  |  | B (≤ 80) | D | A (> 80) | B (≤ 80)
CC(C)C[C@@H](Oc1cccc(Cl)c1)[C@H](C)OC(=O)[C@H](C)NC(=O)c1ncccc1O [Cmpd 1037] |  |  |  |  | A (> 80) | B (≤ 80) | A (> 80) | A (> 80)
Cc1ccc(O[C@H](CC(C)C)[C@H](C)OC(=O)[C@H](C)NC(=O)c2ncccc2O)c(Cl)c1 [Cmpd 1038] |  |  |  |  | D | B (≤ 80) | A (> 80) | B (≤ 80)
CCOc1ccnc(C(=O)N[C@@H](C)C(=O)O[C@@H](C)[C@@H](CC(C)C)Oc2cccc(F)c2)c1O [Cmpd 1039] |  |  |  |  | D | B (≤ 80) | A (> 80) | A (> 80)
CCOc1ccnc(C(=O)N[C@@H](C)C(=O)O[C@@H](C)[C@@H](CC(C)C)Oc2cc(F)ccc2F)c1O [Cmpd 1040] |  |  |  |  | D | D | B (≤ 80) | A (> 80)
COc1ccnc(C(=O)N[C@@H](C)C(=O)O[C@@H](C)[C@@H](CC(C)C)OCC(C)C)c1O [Cmpd 1044] |  |  |  |  | B (≤ 80) | A (> 80) | A (> 80) | A (> 80)
COc1ccnc(C(=O)N[C@@H](C)C(=O)O[C@@H](C)[C@@H](CC(C)C)OCC2CC2)c1O [Cmpd 1045] |  |  |  |  | D | B (≤ 80) | A (> 80) | A (> 80)
COc1ccnc(C(=O)N[C@@H](C)C(=O)O[C@@H](C)[C@@H](CC(C)C)Oc2ccc3ccccc3c2)c1O [Cmpd 1046] |  |  |  |  | D | D | A (> 80) | A (> 80)

— patent US20180000085A1, “USE OF PICOLINAMIDE COMPOUNDS WITH FUNGICIDAL ACTIVITY” (DOW AGROSCIENCES LLC, priority 2014, published 2018)
